System: HCT 116 (colon)
Assay: Human xenograft model, tumor growth inhibition
Format: in vivo, female athymic nude mice
Settings: A8 50 mg/kg po qd x 14 + vehicle (saline) iv D1,8,15
Experimental: To assess in vivo antitumor activity in human xenograft models, female athymic nude mice, 12 to 14 weeks of age, were implanted subcutaneously in the flank with human cancer cells. When the tumors reached approximately 100 mm^3 in size, the mice were pair-matched into various treatment groups. For oral administration, compounds were dissolved in a mixture of 0.5% methylcellulose and 0.1% Tween 80 and administered by gavage to the tumor-bearing mice. For i.v.andi.p..administration, compounds were dissolved in 0.9% NaCI and for the i.v. administration, the compound was administered via the tail vein.
Percent tumor growth inhibition (%TGI) was calculated as %TGI = (Cday a−Tday a)/(Cday a−Cday 1) × 100 [formula]
Where C is the median tumor volume of the control group, T is the median tumor volume of the treatment group, and day a is the day of assessment.
It is evident that the combination of a benzimidazole based anti-cancer agent such as Compound (A8) with the different anti-cancer agents enhanced the anti-tumor effect as compared to administering either of the drug on its own. Table 5: Examples of combination of Compound (A8) and anti-cancer agents in in vivo cancer models

CCCCc1nc2cc(/C=C/C(=O)NO)ccc2n1CCN(CC)CC [Compound A8, 3-[2-Butyl-1-(2-diethylamino-ethyl)-1H-benzimidazol-5-yl]-N-hydroxy-acrylamide]
%TGI at Day 15: 64%

Source: patent EP3449923A1, “COMBINATION OF BEN[…]-CANCER AGENT AND A SECOND ANTI-CANCER AGENT” (MEI Pharma, Inc., priority 2007, dated 2008)
